# Experimental data as given in patent US20060110385A1, “Means and methods for diagnosing and treating affective disorders” (Affectis Pharmaceuticals AG, priority 2003, published 2006).
# Experiments:
# mice = test: Open field test (locomotor activity) after oATP; assay type: in vivo, mouse; details: 10 μM or 50 μM oATP, 15 minutes after injection, 30 minutes
# Experimental: Locomotor activity in mice treated with control vehicle solution, 10 μM oATP, or 50 μM oATP was assessed 15 minutes after injection by placing individual animal in a dark-grey wooden box (30×30×40 cm). Locomotor activity was monitored for a period of 30 minutes using a video camera. Overall distance travelled by the animals during the testing period was then analysed by means of VideoMot2 computer software (TSE GmbH, Bad Homburg).
# P2X7R [1] = molecular target: T1, P2X7R (Mus musculus, UniProt Q9Z1M0); test: Calcium influx into HT-22 cells (Oregon green AM ester); assay type: cell-based; details: 100 mM oATP for 1 hour before BzATP
# T1 construct: endogenous in cells; host or cells: HT-22 (immortalised mouse hippocampal cell line)
# T1 sequence (Q9Z1M0 1-595): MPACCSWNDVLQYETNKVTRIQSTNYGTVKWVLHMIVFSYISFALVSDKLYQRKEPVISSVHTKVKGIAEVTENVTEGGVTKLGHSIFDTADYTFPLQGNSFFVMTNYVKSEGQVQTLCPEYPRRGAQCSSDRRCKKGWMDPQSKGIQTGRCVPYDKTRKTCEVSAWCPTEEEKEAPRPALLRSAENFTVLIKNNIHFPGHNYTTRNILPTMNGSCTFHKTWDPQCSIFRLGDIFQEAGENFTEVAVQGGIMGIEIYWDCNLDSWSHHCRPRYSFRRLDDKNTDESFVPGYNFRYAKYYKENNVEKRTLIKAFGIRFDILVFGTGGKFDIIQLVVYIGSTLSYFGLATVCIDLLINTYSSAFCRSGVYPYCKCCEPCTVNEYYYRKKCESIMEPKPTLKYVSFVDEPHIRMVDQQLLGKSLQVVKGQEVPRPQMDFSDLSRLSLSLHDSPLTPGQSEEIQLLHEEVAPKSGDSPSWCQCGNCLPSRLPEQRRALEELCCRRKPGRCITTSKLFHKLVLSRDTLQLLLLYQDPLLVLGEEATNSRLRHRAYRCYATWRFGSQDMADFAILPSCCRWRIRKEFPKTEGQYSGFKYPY
# Text: Since P2X7R is an ATP-gated ion channel which allows the entry of calcium and sodium ions into cells, a method for identifying P2X7R agonist was established by monitoring calcium influx into HT-22 cells. […] Calcium movement into the cells was visualised under a fluorescent microscope with a fluorescein filter (wavelength 492/517 nm). Oregon green AM ester is a fluorescent dye that binds to intracellular calcium.
# Activation of P2X7R by the agonist was inhibited by oATP (FIG. 18) as illustrated by the absence of green fluorescence in the cells.
# P2X7R [2] = molecular target: T1, P2X7R; test: Entry of ethidium bromide into HT-22 cells; assay type: cell-based; details: pre-incubation 60 minutes with 100 μM o-ATP before agonist and ethidium bromide
# Text: Yet another method of measuring P2X7R activity involves the entry of ethidium bromide into P2X7R expressing cells. Activation of P2X7R by an agonist allows the entry of ethidium bromide which binds nuclear DNA and emits a fluorescence signal. Alternatively, the propidium dye YOPRO-1 can be substituted for ethidium bromide. An increase in fluorescence can be used as a measure of P2X7 receptor activation. Therefore, the assay can be used to test and quantify the effect of an agent or compound with agonist properties on P2X7R. In the present example, 10^3 HT-22 cells were seeded per well in a 96-well flat bottom microtitre plates and incubated at 37° C./5% CO2 in DMEM medium containing 10% FCS until the cells attached to the culture surface. […] The number of fluorescent cells which have integrated the ethidium bromide to the DNA can then be counted using a fluorescent microscope (Zeiss, Germany). […] Alternatively, ethidium bromide fluorescence can be measured using a Perkin-Elmer fluorescent plate reader (excitation 520 nm, emission 595 nm, slit widths: Ex 15 nm, Em 20 nm). From the readings obtained, a pIC50 figure can be calculated for each candidate agent or compound. […] The specificity of an agonist for P2X7R can be evaluated by pre-incubation of the cells for 60 minutes with 100 μM o-ATP before adding the agonist and ethidium bromide dye.
# DBA/201a mice = test: Porsolt's forced swim test after intrahippocampal P2X7R antagonists; assay type: in vivo, mouse; details: 100 nM KN-62 or 10 μM oATP, 1 μl each side, dentate gyrus, 24 hours after injection
# Text: In the present example, the P2X7R antagonists were directly injected into the dentate gyrus region of the hippocampus. Briefly, three months old male mice were bilaterally implanted with guide cannulae (23 gauge, length 8 mm) by means of a stereotactic instrument (David Kopf Instruments). The coordinates, in relation to bregma, were −1.5 mm posterior, ±1.0 mm lateral, and −0.8 mm ventral. Mice were allowed to recover for 10 to 13 days after surgery. Following this recovery period, mice were injected with 1 μl vehicle solution (0.01% DMSO, Sigma), or 100 nM KN-62 (Sigma, prepared in 0.01% DMSO), or 10 μM oATP (Sigma, prepared in PBS) in each side of the brain over a period of 60 seconds. All injections were performed using a 9 mm-31 gauge needle inserted into the guide cannulae and connected via tubing to a 10 μl Hamilton syringe.
# The behaviour of individual mice was assessed using the Porsolt's forced swim test 24 hours after injection of vehicle solution, KN-62, or oATP. A pre-exposure of 5 minutes to the test was performed 15-17 minutes after administration of vehicle, KN-62, or oATP. A description of the Porsolt's forced swim test is given in example 9. […] Observed results were verified statistically using one-way MANOVA test.
smiles,measurement,setting,value
"Nc1ncnc2c1ncn2[C@@H](C=O)O[C@@H](C=O)COP(=O)(O)OP(=O)(O)OP(=O)(O)O [oATP, Oxidized ATP]",locomotor activity (overall distance travelled),mice,No difference in locomotor activity
same,activation of P2X7R by the agonist (calcium influx) after antagonist pre-treatment,P2X7R [1],inhibited
same,number of fluorescent cells after antagonist pre-incubation,P2X7R [2],reduction in the number of fluorescent cells
same,"active escape attempts (time, frequency, latency of struggling)",DBA/201a mice,no changes
same,"passive behaviour (time, frequency, latency of floating)",DBA/201a mice,no changes
